Test results taken from patent publication US11596639B2, “Substituted indole Mcl-1 inhibitors” (Vanderbilt University, priority 2016, dated 2023).
Like-named read-outs stand apart in the source and are kept apart here.

Tests used:
[1] = system: H929 human cancer cell lines; experiment: Cellular viability / proliferation (Cell TiterGlo, 72 h); format: cell-based
In short: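 H929 cells plated at 1,000/well in 10% FBS medium received a 2-fold serial compound dilution (top 50 μM, DMSO <1%) 24 h later. After 72 h, viability was read by CellTiter-Glo luminescence. IC50 came from a four-parameter fit.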

[2] = biological target: Mcl-1 (Homo sapiens (Human), UniProt Q07820); experiment: TR-FRET binding assay, FITC-Bak peptide and MBP-tagged Mcl-1; conditions: read-out: Ki for Inhibition of Mcl-1 by TR-FRET assay
Sequence of Mcl-1 (Q07820 172-327): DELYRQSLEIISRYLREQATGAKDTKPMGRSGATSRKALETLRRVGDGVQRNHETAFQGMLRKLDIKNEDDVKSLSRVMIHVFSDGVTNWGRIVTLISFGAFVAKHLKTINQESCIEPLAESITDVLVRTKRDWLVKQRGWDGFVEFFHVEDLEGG
Experimental: Compounds are diluted in DMSO in a 16-point, semilog serial dilution scheme. […] The plate was mixed and incubated for 3 hours at room temperature. […] TR-FRET signal is plotted and IC50 and Ki values are calculated in the same manner as the fluorescence polarization anisotropy based competition assays.

[3] = Homo sapiens, NCI-H929, 72 h, read-out: GI50 on cellular proliferation of H929 human cancer cell lines, H929 cells, 72 h, Cell TiterGlo, 10% FBS

SMILES: Cc1cccc(Cn2cc(C(=O)O)c3cccc(N4C[C@@H](C)n5c(c(CCCOc6cc(C)c(Cl)c(C)c6)c6ccc(Cl)c(-c7c(C)nn(C)c7C)c65)C4=O)c32)n1 (single isomer, unassigned) [Example 494]
- GI50 ([1]; read-out: GI50 on cellular proliferation of H929 human cancer cell lines, H929 cells, 72 h, Cell TiterGlo, 10% FBS): 450 nM
- Ki [2]: 0.3 nM

SMILES: Cc1cc(OCCCc2c3n(c4c(-c5c(C)nn(C)c5C)c(Cl)ccc24)[C@H](C)CN(c2cc(OC4CCN(C)CC4)cc4cc(C(=O)O)n(C)c24)C3=O)cc(C)c1Cl [Example 519, (R)-7-(7-chloro-10-(3-(4-chloro-3,5-dimethylphenoxy)propyl)-4-methyl-1-oxo-6-(1,3,5-trimethyl-1H-pyrazol-4-yl)-3,4-dihydropyrazino[1,2-a]indol-2(1H)-yl)-1-methyl-5-((1-methylpiperidin-4-yl)oxy)-1H-indole-2-carboxylic acid]
- GI50 [1, 3]: 990 nM
- Ki [2]: 0.46 nM

SMILES: Cc1cc(OCCCc2c3n(c4c(-c5c(C)nn(C)c5C)c(Cl)ccc24)[C@H](C)CN(c2cccc4cc(C(=O)O)n(Cc5ccncn5)c24)C3=O)cc(C)c1Cl [Example 518, (R)-7-(7-chloro-10-(3-(4-chloro-3,5-dimethylphenoxy)propyl)-4-methyl-1-oxo-6-(1,3,5-trimethyl-1H-pyrazol-4-yl)-3,4-dihydropyrazino[1,2-a]indol-2(1H)-yl)-1-(pyrimidin-4-ylmethyl)-1H-indole-2-carboxylic acid]
- GI50 [1, 3]: 810 nM
- Ki [2]: < 0.2 nM

SMILES: Cc1cc(N2C[C@@H](C)n3c(c(CCCOc4cc(C)c(Cl)c(C)c4)c4ccc(Cl)c(-c5c(C)nn(C)c5C)c43)C2=O)c2c(c1)cc(C(=O)O)n2Cc1cc(C#N)ccn1 [Example 556, (R)-7-(7-chloro-10-(3-(4-chloro-3,5-dimethylphenoxy)propyl)-4-methyl-1-oxo-6-(1,3,5-trimethyl-1H-pyrazol-4-yl)-3,4-dihydropyrazino[1,2-a]indol-2(1H)-yl)-1-((4-cyanopyridin-2-yl)methyl)-5-methyl-1H-indole-2-carboxylic acid]
- GI50 [1, 3]: 280 nM
- Ki [2]: < 0.2 nM

SMILES: Cc1cc(OCCCc2c3n(c4c(-c5c(C)ncnc5C)c(Cl)ccc24)[C@H](C)CN(c2cn(C)c4cnc(C(=O)O)cc24)C3=O)cc(C)c1Cl [Example 640, (R)-3-(7-chloro-10-(3-(4-chloro-3,5-dimethylphenoxy)propyl)-6-(4,6-dimethylpyrimidin-5-yl)-4-methyl-1-oxo-3,4-dihydropyrazino[1,2-a]indol-2(1H)-yl)-1-methyl-1H-pyrrolo[2,3-c]pyridine-5-carboxylic acid]
- GI50 [1, 3]: 8100 nM
- Ki [2]: < 0.2 nM

SMILES: COCCOc1cc(N2C[C@@H](C)n3c(c(CCCOc4cc(C)c(Cl)c(C)c4)c4ccc(Cl)c(-c5c(C)ncnc5C)c43)C2=O)c2c(c1)cc(C(=O)O)n2Cc1cc(C)ccn1 [Example 573, (R)-7-(7-chloro-10-(3-(4-chloro-3,5-dimethylphenoxy)propyl)-6-(4,6-dimethylpyrimidin-5-yl)-4-methyl-1-oxo-3,4-dihydropyrazino[1,2-a]indol-2(1H)-yl)-5-(2-methoxyethoxy)-1-((4-methylpyridin-2-yl)methyl)-1H-indole-2-carboxylic acid]
- GI50 [1, 3]: < 200 nM
- Ki [2]: < 0.2 nM

SMILES: COCCn1c(C(=O)O)cc2cc(C)cc(N3C[C@@H](C)n4c(c(CCCOc5cc(C)c(Cl)c(C)c5)c5ccc(Cl)c(-c6c(C)n[nH]c6C)c54)C3=O)c21 [Example 718, (R)-7-(7-chloro-10-(3-(4-chloro-3,5-dimethylphenoxy)propyl)-6-(3,5-dimethyl-1H-pyrazol-4-yl)-4-methyl-1-oxo-3,4-dihydropyrazino[1,2-a]indol-2(1H)-yl)-1-(2-methoxyethyl)-5-methyl-1H-indole-2-carboxylic acid]
- GI50 [1, 3]: 410 nM
- Ki [2]: < 0.2 nM
